Laboratory results reported in PMC8983325 (Protein & Cell, 2022).

System: SARS-CoV-2 variants of concern (Alpha, Beta, Delta and Omicron)
Assay: microbe, parasite or virus in culture
Assay type: cell-based
Settings: Severe acute respiratory syndrome coronavirus 2, VeroE6/TMPRSS2, read-out: EC50 against SARS-CoV-2 VOC

O=C(Nc1ccccc1Cl)c1sc(=S)n2c1[nH]c(=O)c1ccccc12 [F0213]
EC50: 2.2 to 4.8 µM
